Reference: patent publication US8147817B2, “IL-33 in the treatment and diagnosis of diseases and disorders” (The Brigham and Women's Hospital, Inc., priority 2006, dated 2012)
“Also recorded” adds a separate entry of the source.

Legend:
[1] = tested on: IL-33; assay: IL-33 gene expression by quantitative PCR in cardiomyocytes and cardiac fibroblasts; format: cell-based, rat; details: PMA 0.2 μM, angiotensin-II 0.1 μM, TNF-α 10 ng/ml, IL-1β 10 ng/ml
Procedure: mRNA expression was analyzed by quantitative PCR using the QuantiTect SYBR Green reverse transcription-PCR kit (QIAGEN, Valencia, Calif.) and the Light Cycler System (Roche Applied Science, Indianapolis, Ind.) as previously described (5). Total RNA was extracted from cells with TRI reagent, and 0.2 μg of RNA was analyzed. Sequences of PCR primers were as follows (5′ to 3′): […] (SEQ ID NO: 1) and […] (SEQ ID NO: 2) (IL-33); […] (SEQ ID NO: 3) and […] (SEQ ID NO: 4) (ANP); […] (SEQ ID NO: 5) and […] (SEQ ID NO: 6) (BNP); […] (SEQ ID NO: 7) and […] (SEQ ID NO: 8) (procollagen I); […] (SEQ ID NO: 9) and […] (SEQ ID NO: 10) (collagen III).
mRNA expression was analyzed by quantitative PCR using the QuantiTect SYBR Green reverse transcription-PCR kit (QIAGEN) and the Light Cycler System (Roche Applied Science) as previously described (45). Total RNA was extracted from cells with TRI reagent, and 0.2 μg of RNA was analyzed. Sequences of PCR primers were as follows (5′ to 3′): […] (SEQ ID NO: 1) and […] (SEQ ID NO: 2) (rat IL-33); […] (SEQ ID NO: 3) and […] (SEQ ID NO: 4) (rat ANP); […] (SEQ ID NO: 5) and […] (SEQ ID NO: 6) (rat BNP).

[2] = tested on: rat neonatal cardiac fibroblasts; assay: sST2 and IL-33 secretion and free IL-33 in cardiac fibroblast conditioned media (Western, immunoprecipitation); format: cell-based
Procedure: Immunoprecipitation was performed as described previously (45) with some modifications. Briefly, after wash with PBS, protein G-agarose beads were presaturated with far excessive amount of sST2-Fc protein (R&D) at 4° C. overnight, washed 3 times with PBS. 1 ml of conditioned media in the presence and absence of separated preincubation with 20 μg of the sST2-Fc protein was then incubated with presaturated beads for 2 hours at room temperature.
(§1) Western analyses were performed as described previously (45). Membranes were incubated with primary antibodies overnight (anti-p44/42MAPK diluted 1:500; phospho-p44/42MAPK (Thr202/Tyr204) 1:1000; phospho-JNK (Thr183/Tyr185) 1:500; p38MAPK 1:500; phospho-p38MAPK (Thr180/Tyr182) 1:500; phospho-Akt (Ser473) 1:1000 and phospho-IκBα 1:1000, all from Cell Signaling, anti-mouse ST2L, from R&D 1:1000 and anti-IL-33 as described above, 1:500) at 4° C., detected with horseradish peroxidase-conjugated antibodies and enhanced chemiluminescence.

[3] = tested on: NF-κB; assay: NF-κB nuclear binding activity by EMSA in cardiomyocytes; format: cell-based, rat; details: cardiomyocytes; angiotensin-II 1 μM, phenylephrine 50 μM, IL-33 10 ng/ml
Procedure: (§2) Electromobility shift assays were performed as described previously (8). Cells were lysed for 10 minutes on ice in a solution containing 10 mM HEPES (pH 7.6), 15 mM KCl, 2 mM MgCl2, 0.1 mM ethylenediamine tetraacetic acid (EDTA), 1 mM dithiothreitol (DTT), 0.5 mM phenylmethylsulphonylfluoride (PMSF), 10 μg/mL leupeptin and 0.2% Nonident P-40. Dishes were gently scraped, and nuclei were collected by centrifugation at 800 g for 30 seconds and then suspended in a solution of 50 mM HEPES, 400 mM KCl, 0.1 mM EDTA, 10% glycerol, 1 mM DTT, 0.5 mM PMSF and 10 μg/mL leupeptin. The mixture was incubated on ice for 30 minutes, and the supernatant was collected after centrifugation for 15 minutes at 400 g. Binding reactions were performed with 5 or 10 μg of nuclear protein in 10 mM Tris, 1 mM DTT, 1 mM EDTA, 5% glycerol, 0.1% Triton X-100, 1 mg poly(dIdC), 5 μg bovine serum albumin (BSA) and approximately 10,000 cpm of −32P-labeled oligonucleotide. The binding reactions for AP-1 activity also contained 5 mM MgCl2. Control reaction mixtures contained a 100-fold excess of unlabeled oligonucleotide and were incubated with nuclear extracts of IL-1β-treated cells. DNA complexes were separated on a 4% nondenaturing polyacrylamide gel in Tris-HCl (6.7 mM), EDTA (1 mM) and ammonium acetate (3.3 mM). The oligonucleotides contained the NF-B binding site (sequence: 5′-AGTTGAGGGGACTTTCCCAGGC-3′ (SEQ ID NO: 15)) and were labeled by standard procedures.
EMSAs were performed as described previously (47). Cells were lysed for 10 minutes on ice in 10 mM HEPES (pH 7.6), 15 mM KCl, 2 mM MgCl2, 0.1 mM EDTA, 1 mM DTT, 0.5 mM PMSF, 10 μg/mL leupeptin, and 0.2% Nonident P-40. Dishes were gently scraped, and nuclei were collected by centrifugation at 800 g for 30 seconds and then suspended in a solution of 50 mM HEPES, 400 mM KCl, 0.1 mM EDTA, 10% glycerol, 1 mM DTT, 0.5 mM PMSF, and 10 μg/mL leupeptin. The mixture was incubated on ice for 30 minutes, and the supernatant was collected after centrifugation for 15 minutes at 400 g. Binding reactions were performed with 5 or 10 μg of nuclear protein in 10 mM Tris, 1 mM DTT, 1 mM EDTA, 5% glycerol, 0.1% Triton X-100, 1 mg poly(dIdC), […] BSA, and 10,000 cpm of [^32P]-labeled oligonucleotide. The specific NF-κB consensus oligonucleotides were 5′-[…]-3′ (SEQ ID NO: 15) and 5′-[…]-3′ (SEQ ID NO: 18) (Promega). Positive and negative control mixtures as well as specific competition mixtures were made as recommended by the manufacturer's instructions, using binding buffer with positive samples, labeled NF-κB oligonucleotides and 10-fold excess of cold NF-κB consensus oligonucleotides for specific competition. DNA complexes were separated on a 6% nondenaturing polyacrylamide gel in Tris-HCl (6.7 mM), EDTA (1 mM), and ammonium acetate (3.3 mM).

[4] = tested on: NF-κB; assay: NF-κB nuclear binding activity by EMSA in cardiac fibroblasts; format: cell-based, rat; details: angiotensin-II 1 μM, phenylephrine 50 μM, IL-33 10 ng/ml
Procedure: as §2
EMSAs were performed as described previously (47). Cells were lysed for 10 minutes on ice in 10 mM HEPES (pH 7.6), 15 mM KCl, 2 mM MgCl2, 0.1 mM EDTA, 1 mM DTT, 0.5 mM PMSF, 10 μg/mL leupeptin, and 0.2% Nonident P-40. Dishes were gently scraped, and nuclei were collected by centrifugation at 800 g for 30 seconds and then suspended in a solution of 50 mM HEPES, 400 mM KCl, 0.1 mM EDTA, 10% glycerol, 1 mM DTT, 0.5 mM PMSF, and 10 μg/mL leupeptin. The mixture was incubated on ice for 30 minutes, and the supernatant was collected after centrifugation for 15 minutes at 400 g. […]

[5] = tested on: cardiomyocytes; assay: Oxidative stress assay (DCFDA, ROS generation); format: cell-based, rat; details: DCFDA
Procedure: An assay to detect oxidative stress was performed as reported previously (48). Cardiomyocytes were incubated with 2,7-dichlorodihydrofluorecein diacetate (DCFDA) for 45 min, washed in phosphate-buffered saline, and fluorescence intensity was measured using a fluorometer (PerkinElmer Life Science) at 595 nm.

[6] = tested on: IκBα; assay: IκBα phosphorylation by Western analysis in cardiomyocytes; format: cell-based, rat; details: cardiomyocytes
Procedure: as §1

[7] = tested on: IκBα; assay: IκBα phosphorylation by Western analysis in cardiac fibroblasts; format: cell-based, rat
Procedure: as §1

[8] = tested on: NF-κB; assay: NF-κB luciferase reporter assay in neonatal rat cardiomyocytes; format: cell-based; details: n=3
Procedure: Neonatal rat cardiomyocytes were transfected using Lipofectamine Plus (Invitrogen) with a luciferase reporter plasmid for NF-κB and with β-galactosidase, as described previously (47). After 48 hours of transfection, cells were then stimulated for an additional 24 hours, lysed and treated with Dual-Light assay system (Applied Biosystems, Foster City, Calif.), and analyzed using a luminometer (PerkinElmer Waltham, Calif.).

[9] = tested on: rat neonatal cardiomyocytes; assay: [3H]-leucine incorporation assay (hypertrophy); format: cell-based; details: for hypertrophic response under angiotensin-II or phenylephrine: agent added without IL-33; for antihypertrophic effect of IL-33: under angiotensin-II or phenylephrine plus IL-33, agent added
Procedure: Leucine incorporation in rat neonatal cardiomyocytes was detected as previously described (7). Cells were pre-incubated with 1.0 μCi/mL [^3H]leucine for 24 hours. The medium was aspirated, and the cells were washed twice with ice-cold PBS and once with 10% trichloroacetic acid (TCA; Sigma) and fixed for 45 minutes at 4° C. with 10% TCA. After washing twice with cold 95% ethanol, radioactivity incorporated into the TCA-precipitable material was determined by liquid scintillation counting after solubilization in 0.15N NaOH.
Leucine incorporation in rat neonatal cardiomyocytes was detected as previously described (46). Cells were treated with 1.0 μCi/ml [^3H]-leucine for 24 hours, washed, fixed with 10% trichloroacetate (Sigma) for 45 minutes at 4° C., and then radioactivity was determined by liquid scintillation counting. An anti-mouse ST2 antibody (R&D) was used as a functional neutralizing antibody (12). A normal rat IgG2a (Sigma) and mouse IL-1Rrp2 (R&D) were used as controls for anti-mouse ST2 antibody (R&D) and mouse soluble ST2 (R&D), respectively.

[10] = increasing doses of PMA, 24 hrs

CCCCCCCCCCCCCC(=O)O[C@@H]1[C@@H](C)[C@@]2(O)[C@@H](C=C(CO)C[C@]3(O)C(=O)C(C)=C[C@@H]23)[C@@H]2C(C)(C)[C@]12OC(C)=O [PMA, phorbol 12-myristate 13-acetate]
induction of IL-33 gene expression [1]: induced the expression of IL-33 in both cell types; also recorded: powerful inducer
free (unbound) IL-33 [2, 10]: unbound IL-33 diminished; also recorded: dose-dependent decrease in free IL-33 level; also recorded: dose-dependently decreased free IL-33
secretion of sST2 and total IL-33 [2, 10]: both sST2 and total IL-33 were induced; also recorded: dose-dependent robust induction in both sST2 and IL-33 protein expression; also recorded: dose-dependently increased secretion of both IL-33 (top) and sST2

CNC[C@H](O)c1cccc(O)c1 [phenylephrine, reference compound]
NF-κB activation by agent alone [3]: independently activated NF-κB in both cell types
NF-κB activation by agent alone [4]: independently activated NF-κB in both cell types
ROS generation by agonist alone [5]: significantly induced ROS generation

IL-1β: cytokine stimulus, 10 ng/ml
induction of IL-33 gene expression [1]: neither TNF-α (10 ng/ml) nor IL-1β (10 ng/ml) induced IL-33 gene expression

TNF-α
induction of IL-33 gene expression [1]: neither TNF-α (10 ng/ml) nor IL-1β (10 ng/ml) induced IL-33 gene expression

angiotensin-II (DRVYIHPF; Angiotensin-2; UniProt P01019 25-32, looked up) [hypertrophic stimulus, angiotensin receptor agonist, reference compound]
NF-κB activation by agent alone [3]: independently activated NF-κB in both cell types
NF-κB activation by agent alone [4]: independently activated NF-κB in both cell types
IκBα phosphorylation by agent alone [6]: induced IκBα phosphorylation in both cell types
IκBα phosphorylation by agent alone [7]: induced IκBα phosphorylation in both cell types
increase of NF-κB promoter activity ([8]; angiotensin-II alone): 66+/−26%
ROS generation by agonist alone [5]: significantly induced ROS generation
induction of IL-33 gene expression [1]: induced the expression of IL-33 in both cell types

sST2-Fc: sST2-Fc protein (R&D), recombinant ST2-Fc chimera protein
free IL-33 in conditioned media after preincubation ([2]; 20 μg of sST2-Fc protein): removed free IL-33

sST2: soluble form of ST2; mouse soluble ST2 (R&D); acts as decoy receptor for IL-33
hypertrophic response under angiotensin-II or phenylephrine [9]: further augment the hypertrophic response; also recorded: trend toward increased amino acid uptake
hypertrophic response under angiotensin-II or phenylephrine ([9]; listed as soluble ST2): further enhanced hypertrophy
leucine uptake at baseline ([9]; agent alone, vs baseline or control protein): not affected
antihypertrophic effect of IL-33 [9]: reversed the antihypertrophic effect of IL-33 in a dose-dependent manner
antihypertrophic effect of IL-33 ([9]; listed as Soluble ST2): dose-dependently reversed the antihypertrophic effect of IL-33
antihypertrophic effect of IL-33 ([9]; listed as soluble ST2): abolishes it; also recorded: the effects of IL-33 are abolished
increase of NF-κB promoter activity ([8]; angiotensin-II with IL-33 and sST2 co-treatment): 42+/−5%
